# Assay results reported in US20080039483A1, “Novel Chelidonine Derivatives, Methods for the Production Thereof, and Use Thereof For Producing Pharmaceutical Agents” (priority 2003, published 2008).
# Legend:
# Panc1 (pancreas) = experiment: MTT cytotoxicity test, Panc1; format: cell-based
# BxPC3 (pancreas) = experiment: MTT cytotoxicity test, BxPC3; format: cell-based
# T47D (breast) = experiment: MTT cytotoxicity test, T47D; format: cell-based
# Colo205 (colon) = experiment: MTT cytotoxicity test, Colo205; format: cell-based
# U373MG (astrocyte) = experiment: MTT cytotoxicity test, U373MG; format: cell-based
# [1] = tested on: T47D, Colo205, Panc1, BxPC3, U373MG, SK-0V3; experiment: MTT cytotoxicity test, activity compared to native chelidonine across the cell lines; format: cell-based; conditions: for activity compared to native chelidonine: overall, times higher than native chelidonine; for activity compared to native chelidonine, range: range of times higher than native chelidonine
Compound,"IC50, MTT cytotoxicity test (Panc1 (pancreas))","IC50, MTT cytotoxicity test (BxPC3 (pancreas))","IC50, MTT cytotoxicity test (SK-0V3 (ovarian))","IC50, MTT cytotoxicity test (T47D (breast))","IC50, MTT cytotoxicity test (Colo205 (colon))","IC50, MTT cytotoxicity test (U373MG (astrocyte))",activity compared to native chelidonine [1],"activity compared to native chelidonine, range [1]","IC50 (Panc1 (pancreas); Homo sapiens, PANC-1)","IC50 (BxPC3 (pancreas); Homo sapiens, BXPC-3)",IC50 (T47D (breast); Homo sapiens),"IC50 (Colo205 (colon); Homo sapiens, COLO 205)","IC50 (U373MG (astrocyte); Homo sapiens, U373 MG)"
Chelidoninyl Trifluoroacetate [Chelidonine trifluoroacetate],0.06 µg/mL,0.03 µg/mL,0.06 µg/mL,0.02 µg/mL,0.045 µg/mL,>4 µg/mL,5 times,4-10 times,–,–,–,–,–
"CN1Cc2c(ccc3c2OCO3)C2C(OC(=O)OC(Cl)(Cl)Cl)Cc3cc4c(cc3C21)OCO4 (centres unmarked) [Chelidoninyl trichloromethyl carbonate, Chelidoninyl Trichloromethyl Carbonate]",0.25 µg/mL,>8 µg/mL,–,0.2 µg/mL,0.5 µg/mL,>8 µg/mL,–,–,–,–,–,–,–
"COC(=O)CCC(=O)O[C@H]1Cc2cc3c(cc2[C@@H]2[C@H]1c1ccc4c(c1CN2C)OCO4)OCO3 [Chelidoninyl methyl succinate, Succinic Acid Chelidoninyl Methyl ester]",0.005 µg/mL,<0.0035 µg/mL,0.0035 µg/mL,0.02 µg/mL,0.0035 µg/mL,4 µg/mL,approximately 30 times,50-150 times,–,–,–,–,–
CN1Cc2c(ccc3c2OCO3)[C@@H]2[C@H]1c1cc3c(cc1C[C@@H]2O)OCO3 [Chelidonine],–,–,–,–,–,–,–,–,0.25 µg/mL,> 8 µg/mL,0.2 µg/mL,0.37 µg/mL,> 8 µg/mL
